Measured values published in PubChem BioAssay AID256 (DTP/NCI, 2004).
“And” between values parts separate entries of the source, which are not always exact repeats. Identical values can stand only once. Inconclusive results and toxic doses are left out. How the source made its calls: active means survival T/C of 150% or more; inactive means T/C below 125% in these data.

Test system: CD2F1 mice, L1210 leukemia ip, survival T/C
Assay: NCI In Vivo Anticancer Drug Screen. Data for tumor model L1210 Leukemia (intraperitoneal) in CD2F1 (CDF1) mice
Settings: higher = longer survival
Outline: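 Transplantable tumor in mice; compound-treated vs vehicle-treated groups. Read-out = treated/control ratio of the measured endpoint.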

[1] = endpoint: mean survival time, dose: 100.0 mg/kg/injection, schedule: Q01DX009 (ip), vehicle: saline with Tween-80
[2] = endpoint: mean survival time, dose: 100.0 mg/kg/injection, schedule: Q04DX003 (ip), vehicle: saline with Tween-80
[3] = endpoint: mean survival time, dose: 200.0 mg/kg/injection, schedule: Q01DX009 (ip), vehicle: saline with Tween-80
[4] = endpoint: mean survival time, dose: 200.0 mg/kg/injection, schedule: Q04DX003 (ip), vehicle: saline with Tween-80
[5] = endpoint: mean survival time, dose: 400.0 mg/kg/injection, schedule: Q01DX009 (ip), vehicle: saline with Tween-80
[6] = endpoint: mean survival time, dose: 400.0 mg/kg/injection, schedule: Q04DX003 (ip), vehicle: saline with Tween-80
[7] = endpoint: mean survival time, dose: 25.0 mg/kg/injection, schedule: Q01DX009 (ip), vehicle: saline with Tween-80
[8] = endpoint: mean survival time, dose: 50.0 mg/kg/injection, schedule: Q01DX009 (ip), vehicle: saline with Tween-80
[9] = endpoint: mean survival time, dose: 100.0 mg/kg/injection, schedule: Q04DX002 (ip), vehicle: saline with Tween-80
[10] = endpoint: mean survival time, dose: 200.0 mg/kg/injection, schedule: Q04DX002 (ip), vehicle: saline with Tween-80
[11] = endpoint: mean survival time, dose: 50.0 mg/kg/injection, schedule: Q01DX009 (ip), vehicle: saline
[12] = endpoint: mean survival time, dose: 100.0 mg/kg/injection, schedule: Q01DX009 (ip), vehicle: saline

Measured: T/C

Cc1cccc(-c2cc(Cl)c3cc(S(=O)(=O)F)ccc3n2)c1
inactive: [1] 94 % of control | [2] 104 % of control | [3] 93 % of control | [4] 101 % of control | [5] 100 % of control | [6] 92 % of control

COC(=N)c1ccc(Cl)cc1
inactive: [2] 97 % of control | [4] 103 % of control | [6] 93 % of control

O=C(c1ccccc1)c1ccc([N+](=O)[O-])cc1
inactive: endpoint: mean survival time, dose: 100.0 mg/kg/injection, schedule: Q04DX003 (ip), vehicle: saline sonified 92 % of control | endpoint: mean survival time, dose: 200.0 mg/kg/injection, schedule: Q04DX003 (ip), vehicle: saline sonified 95 % of control | endpoint: mean survival time, dose: 400.0 mg/kg/injection, schedule: Q04DX003 (ip), vehicle: saline sonified 100 % of control

CCOC(=O)C(=O)c1c(N)n(C)c(=O)n(C)c1=O
inactive: endpoint: mean survival time, dose: 6.25 mg/kg/injection, schedule: Q01DX009 (ip), vehicle: Klucel (hydroxypropylcellulose) (HPC) 112 % of control | endpoint: mean survival time, dose: 12.5 mg/kg/injection, schedule: Q01DX009 (ip), vehicle: Klucel (hydroxypropylcellulose) (HPC) 87 % of control | endpoint: mean survival time, dose: 25.0 mg/kg/injection, schedule: Q01DX009 (ip), vehicle: Klucel (hydroxypropylcellulose) (HPC) 102 % of control

O=C1NC(O)CCN1C1OC(CO)C(O)C1O (configuration not stated)
inactive: endpoint: median survival time, dose: 10.0 mg/kg/injection, schedule: Q01DX009 (ip), vehicle: saline 106 % of control and 107 % of control | endpoint: median survival time, dose: 12.5 mg/kg/injection, schedule: Q01DX001 (oral), vehicle: saline 101 % of control | endpoint: median survival time, dose: 21.88 mg/kg/injection, schedule: Q01DX009 (ip), vehicle: saline 102 % of control | endpoint: median survival time, dose: 25.0 mg/kg/injection, schedule: Q01DX001 (oral), vehicle: saline 102 % of control | endpoint: median survival time, dose: 30.0 mg/kg/injection, schedule: Q01DX009 (ip), vehicle: saline 104 % of control | endpoint: median survival time, dose: 50.0 mg/kg/injection, schedule: Q01DX001 (oral), vehicle: saline 101 % of control | endpoint: median survival time, dose: 100.0 mg/kg/injection, schedule: Q01DX001 (oral), vehicle: saline 97 % of control | endpoint: median survival time, dose: 100.0 mg/kg/injection, schedule: Q01DX009 (ip), vehicle: saline 105 % of control | endpoint: median survival time, dose: 200.0 mg/kg/injection, schedule: Q01DX001 (oral), vehicle: saline 102 % of control | endpoint: median survival time, dose: 300.0 mg/kg/injection, schedule: Q01DX009 (ip), vehicle: saline 106 % of control | endpoint: median survival time, dose: 1000.0 mg/kg/injection, schedule: Q01DX009 (ip), vehicle: saline 100 % of control and 108 % of control

Cc1cccc(Oc2ccc(C(F)(F)F)cc2[N+](=O)[O-])c1
inactive: endpoint: mean survival time, dose: 100.0 mg/kg/injection, schedule: Q01DX001 (ip), vehicle: saline with Tween-80 98 % of control | endpoint: mean survival time, dose: 200.0 mg/kg/injection, schedule: Q01DX001 (ip), vehicle: saline with Tween-80 90 % of control | endpoint: mean survival time, dose: 400.0 mg/kg/injection, schedule: Q01DX001 (ip), vehicle: saline with Tween-80 91 % of control

C/C=C/c1cc2c(c(=O)o1)C(=O)[C@@H](O)[C@H](C)O2
inactive: endpoint: mean survival time, dose: 6.25 mg/kg/injection, schedule: Q01DX009 (ip), vehicle: saline with Tween-80 101 % of control | endpoint: mean survival time, dose: 12.5 mg/kg/injection, schedule: Q01DX009 (ip), vehicle: saline with Tween-80 105 % of control | [7] 97 % of control | [8] 101 % of control | [1] 113 % of control

CCCCCC(=O)C(C)CC (configuration not stated)
inactive: [2] 96 % of control | [4] 104 % of control | [6] 94 % of control

COC(=O)C1c2ccccc2-c2ccccc21
inactive: endpoint: mean survival time, dose: 50.0 mg/kg/injection, schedule: Q04DX003 (ip), vehicle: saline with Tween-80 95 % of control | [2] 103 % of control | [4] 100 % of control

NNC(=O)C1C2CCCCC21 (configuration not stated)
inactive: [7] 94 % of control | [8] 97 % of control | [1] 97 % of control

C[Si](C)(C)C1C=CC=C1
inactive: [9] 100 % of control | [10] 100 % of control | endpoint: mean survival time, dose: 400.0 mg/kg/injection, schedule: Q04DX002 (ip), vehicle: saline with Tween-80 92 % of control

CC(Br)C(C)Br (configuration not stated)
inactive: [11] 103 % of control | [12] 95 % of control | endpoint: mean survival time, dose: 200.0 mg/kg/injection, schedule: Q01DX009 (ip), vehicle: saline 100 % of control

CCN(C(=O)Nc1cc(OC)ccc1OC)c1ccc(Cl)cc1
inactive: [1] 96 % of control | [3] 96 % of control | [5] 93 % of control

O=C(O)C1C2CCC(C2)C1C(=O)O (configuration not stated)
inactive: endpoint: mean survival time, dose: 25.0 mg/kg/injection, schedule: Q04DX002 (ip), vehicle: saline with Tween-80 118 % of control | endpoint: mean survival time, dose: 50.0 mg/kg/injection, schedule: Q04DX002 (ip), vehicle: saline with Tween-80 100 % of control | endpoint: mean survival time, dose: 100.0 mg/kg/injection, schedule: Q01DX001 (ip), vehicle: Klucel (hydroxypropylcellulose) (HPC) 108 % of control | [9] 89 % of control | [2] 105 % of control | endpoint: mean survival time, dose: 200.0 mg/kg/injection, schedule: Q01DX001 (ip), vehicle: Klucel (hydroxypropylcellulose) (HPC) 98 % of control | [10] 93 % of control | [4] 102 % of control | endpoint: mean survival time, dose: 400.0 mg/kg/injection, schedule: Q01DX001 (ip), vehicle: Klucel (hydroxypropylcellulose) (HPC) 96 % of control

O=C(Nc1ccc(Cl)c(Cl)c1)Nc1ccc(Oc2ccc(Cl)cc2Cl)cc1S(=O)(=O)O
inactive: endpoint: mean survival time, dose: 100.0 mg/kg/injection, schedule: Q01DX001 (ip), vehicle: acetone 102 % of control | endpoint: mean survival time, dose: 200.0 mg/kg/injection, schedule: Q01DX001 (ip), vehicle: acetone 91 % of control | endpoint: mean survival time, dose: 400.0 mg/kg/injection, schedule: Q01DX001 (ip), vehicle: acetone 94 % of control

C1CC[N-]CC1.C1CC[N-]CC1.C1CC[N-]CC1.C1CC[N-]CC1.[Cl][Rh][Cl]
inactive: endpoint: mean survival time, dose: 6.25 mg/kg/injection, schedule: Q04DX003 (ip), vehicle: saline 98 % of control | [11] 90 % of control

CC1(C)OC(=O)C(c2ccccc2)O1 (configuration not stated)
inactive: [2] 100 % of control | [4] 98 % of control | [6] 104 % of control

CCN1/C(=C/C=C/C=C/c2sc3ccccc3[n+]2CC)Sc2ccccc21
inactive: endpoint: mean survival time, dose: 0.08 mg/kg/injection, schedule: Q01DX009 (ip), vehicle: saline 109 % of control | endpoint: mean survival time, dose: 0.09 mg/kg/injection, schedule: Q01DX009 (ip), vehicle: saline 117 % of control | endpoint: mean survival time, dose: 0.12 mg/kg/injection, schedule: Q01DX009 (ip), vehicle: saline 114 % of control | endpoint: mean survival time, dose: 0.16 mg/kg/injection, schedule: Q04DX003 (ip), vehicle: saline 105 % of control | endpoint: mean survival time, dose: 0.19 mg/kg/injection, schedule: Q01DX009 (ip), vehicle: saline 121 % of control | endpoint: mean survival time, dose: 0.25 mg/kg/injection, schedule: Q04DX003 (ip), vehicle: saline 112 % of control | endpoint: mean survival time, dose: 0.28 mg/kg/injection, schedule: Q01DX009 (ip), vehicle: saline 114 % of control | endpoint: mean survival time, dose: 0.33 mg/kg/injection, schedule: Q04DX002 (ip), vehicle: saline 101 % of control | endpoint: mean survival time, dose: 0.38 mg/kg/injection, schedule: Q04DX003 (ip), vehicle: saline 108 % of control | endpoint: mean survival time, dose: 0.42 mg/kg/injection, schedule: Q01DX009 (ip), vehicle: saline 122 % of control | endpoint: mean survival time, dose: 0.5 mg/kg/injection, schedule: Q04DX002 (ip), vehicle: saline 112 % of control | endpoint: mean survival time, dose: 0.57 mg/kg/injection, schedule: Q04DX003 (ip), vehicle: saline 118 % of control | endpoint: mean survival time, dose: 0.66 mg/kg/injection, schedule: Q01DX001 (ip), vehicle: saline 120 % of control | endpoint: mean survival time, dose: 0.76 mg/kg/injection, schedule: Q04DX002 (ip), vehicle: saline 106 % of control | endpoint: mean survival time, dose: 0.85 mg/kg/injection, schedule: Q04DX003 (ip), vehicle: saline 112 % of control | endpoint: mean survival time, dose: 0.99 mg/kg/injection, schedule: Q01DX001 (ip), vehicle: saline 118 % of control | endpoint: mean survival time, dose: 1.1 mg/kg/injection, schedule: Q04DX002 (ip), vehicle: saline 114 % of control | endpoint: mean survival time, dose: 1.5 mg/kg/injection, schedule: Q01DX001 (ip), vehicle: saline 100 % of control | endpoint: mean survival time, dose: 1.7 mg/kg/injection, schedule: Q04DX002 (ip), vehicle: saline 97 % of control | endpoint: mean survival time, dose: 2.2 mg/kg/injection, schedule: Q01DX001 (ip), vehicle: saline 114 % of control | endpoint: mean survival time, dose: 3.3 mg/kg/injection, schedule: Q01DX001 (ip), vehicle: saline 114 % of control

COC(=O)/C=C\C(=O)O
inactive: [11] 102 % of control | [12] 100 % of control

O=C(O)c1cc2ccc(Cl)cc2c2cc(C(F)(F)F)ccc12
inactive: endpoint: mean survival time, dose: 18.8 mg/kg/injection, schedule: Q01DX009 (ip), vehicle: saline 97 % of control | endpoint: mean survival time, dose: 37.5 mg/kg/injection, schedule: Q01DX009 (ip), vehicle: saline 111 % of control | endpoint: mean survival time, dose: 75.0 mg/kg/injection, schedule: Q04DX003 (ip), vehicle: saline 95 % of control

CC1=NN(c2ccccc2)C(=O)C1(Br)Br
inactive: [7] 96 % of control | [8] 98 % of control
